Patent publication US8367723B2, “Selenoquinone-derived active organometallic complexes, methods for synthesizing same, and uses thereof” (Centre National de la Recherche Scientifique—CNRS, priority 2009, dated 2013)

Experiments:
[1] = tested on: A2780 ovarian cancer cells; assay: MTT cytotoxicity test on A2780 ovarian cancer cells; format: cell-based; conditions: A2780 ovarian cancer cell line, 72 hours incubation
Protocol: (§1) The biological (cytotoxicity) properties of the complexes synthesized above were tested on A2780 and A2780cisR (cisplatin-resistant) ovarian cancer cells according to a conventional procedure described below, and the IC50 values obtained were compared with those obtained under the same conditions with the cisplatin complex Pt (NH3)2Cl2.
(§2) The A2780 and A2780cisR ovarian cancer cell lines were obtained from The European Collection of Cell Cultures (ECACC) (Salisbury, UK). The cells were cultured in RPMI medium comprising glucose, 5% of fetal calf serum (FCS) and antibiotics, at 37° C. and 5% CO2.
(§3) The cytotoxicity was determined using the MTT (3-(4,5-dimethyl-2-thiazolyl)-2,5-diphenyl-2H-tetrazolium bromide) test (MOSMANN, 1983).
(§4) The cells were distributed in 96-well plates, as monolayers, with 100 μl of solution (approximately 20 000 cells) per well, and were preincubated for 24 hours in a medium supplemented with 10% of FCS.
(§5) The compounds were prepared in DMSO solution, were then dissolved in the culture medium and were successively diluted to the appropriate concentration, in order to obtain a final DMSO concentration of 0.5%. 100 μl of solution of these compounds were added to each well and the plates were incubated for 72 hours. Subsequently, MTT (5 mg/ml) was added to the cells and the plates were incubated for 2 hours. The culture medium was removed by suction and the purple formazan crystals formed by the mitochondrial dehydrogenase activity of the living cells were dissolved in DMSO.
(§6) The optical density, which is directly proportional to the number of living cells, was quantified at 540 nm using a multiwell plate reader and the fraction of living cells was quantified from the absorbance of untreated control cells. Evaluation was carried out from two independent experiments, each comprising 3 microcultures per concentration level.

[2] = tested on: A2780cisR (cisplatin-resistant) ovarian cancer cells; assay: MTT cytotoxicity test on A2780cisR (cisplatin-resistant) ovarian cancer cells; format: cell-based; conditions: A2780cisR (cisplatin-resistant) cell line, 72 hours incubation
Protocol: as §1, §2, §3, §4, §5, §6

Row | Compound | IC50 [1] | IC50 [2]
1 | N.N.[Cl][Pt][Cl] [cis-[Pt(NH3)2Cl2], cis-diamminedichloroplatinum(II)] | 3 µM | 25 µM
2 | o-[(C5Me5)Ir(η^4-benzoquinone)] [compound 3] | > 400 µM | –
3 | o-[(C5Me5)Ir(η^4-dithiobenzoquinone)] [compound 5] | 49 µM | –
4 | o-[(C5Me5)Rh(η^4-benzoquinone)] [compound 1] | > 400 µM | –
5 | p-[(C5Me5)Ir(η^4-2,5-dimethyldiselenobenzoquinone)] [compound 10] | 6.2 µM | 7.3 µM
6 | p-[(C5Me5)Ir(η^4-benzoquinone)] [compound 4] | 93 µM | –
7 | p-[(C5Me5)Ir(η^4-diselenobenzoquinone)] [compound 8] | 5 µM | –
8 | p-[(C5Me5)Ir(η^4-dithiobenzoquinone)] [compound 6] | 154 µM | –
9 | p-[(C5Me5)Ir(η^4-monoselenobenzoquinone)] [compound 9] | 12.3 µM | 8.4 µM
10 | p-[(C5Me5)Rh(η^4-benzoquinone)] [compound 2] | > 400 µM | –
